Results taken from patent US6759402B2, “Cyclic felbamate derived compounds” (University of Virginia Patent Foundation, priority 1999, dated 2004).
Marks after values point to notes of the source that are not given here.

What was measured:
[1] = tested on: MES-induced seizure spread; assay: Maximal Electroshock Seizure (MES) test, mice i.p.; assay type: in vivo; details: for MES: number of animals protected/total number of animals tested: mice i.p.
Text: (§1) The fluoro derivatives synthesized were submitted to the National Institute of Neurological Disorders and Stroke (NINDS) for evaluation in a standard panel of assays. Two convulsant tests (MES and scMET), and a toxicity screen (rotorod in mice, positional sense and gait in rats) were employed for evaluating the compounds activity as neuroprotecting agents. These testing procedures are described in detail in Molecular and Cellular Targets for Anti-epileptic Drugs, eds. G. Avanzini, G. Regesta, P. Tanganelli, M. Avoli, 1997, John Libbey & Company Ltd, pp 191-198. The felbamate derivatives were evaluated for anticonvulsant activity following intraperitoneal (i.p.) administration in mice and oral administration in rats.
(§2) The MES test is a model for generalized tonic-clonic seizures and is used to identify compounds which prevent seizure spread. The behavioral and electrographic seizures generated in this model are consistent with the human disorder. In the MES test, an electrical stimulus of 0.2 s in duration (50 mA in mice and 150 mA in rat at 60 Hz) was delivered via corneal electrodes primed with an electrolyte solution containing an anesthetic agent. Mice were tested at 30 minutes and 4 hours following doses of 30, 100 and 300 mg/kg of test compound. Rats were tested at time intervals between 0.25 and 4 hours following a standard oral dose of 30 mg/kg. Abolition of the hindlimb tonic extensor component indicates the test compound's ability to inhibit MES-induced seizure spread.
(§3) For the MES and scMET tests the data is presented in the form of the number of animals protected by the administered compound/total number of animals tested. […] Qualitative data was obtained for fluoro felbamate 12 (Tables 1 and 2A), fluoro monocarbamate felbamate 13 (Tables 1 and 2B), and flourodioxo 16 (Tables 1 and 2C) and for cyclic felbamate 21 (Tables 5 and 6B) and cyclic monocarbamate 22 (Tables 5 and 6A). More extensive quantitative data was also obtained for fluoro felbamate 12 in mice (Table 3) and rats (Table 4).

[2] = tested on: MES-induced seizure spread; assay: Maximal Electroshock Seizure (MES) test, rats p.o.; assay type: in vivo; details: for MES protection: rats, oral, several timepoints; for MES protection / MES: number of animals protected/total number of animals tested: 30 mg/kg; for anti-seizure activity in rats: rat models; for MES: number of animals protected/total number of animals tested: rat p.o.
Text: as §1, §2, §3

[3] = Stability of oxazinane-dione at relevant pH; assay type: physicochemical
[4] = tested on: mice (rotorod); assay: Minimal neurotoxicity (TOX), rotorod test, mice i.p.; assay type: in vivo; details: for TOX: number of animals exhibiting toxic effects/total number of animals tested: mice i.p.
Text: as §1, with “G. Avanzini, G. Regesta, P. Tanganelli, M. Avoli, 1997, John Libbey & Company Ltd, pp 191-198.” left out, “rats. […]” for “rats.”

[5] = tested on: rats (positional sense, gait and stance); assay: Minimal neurotoxicity (TOX), positional sense and gait and stance tests, rats p.o.; assay type: in vivo; details: for TOX: number of animals exhibiting toxic effects/total number of animals tested: rat p.o., 30 mg/kg
Text: as §1, with “G. Avanzini, G. Regesta, P. Tanganelli, M. Avoli, 1997, John Libbey & Company Ltd, pp 191-198.” left out
Rats are examined for behavioral toxicity by the positional sense test and a gait and stance test. […] In the gait and stance test, neurotoxicity is indicated by a circular or zigzag gait, ataxia, abnormal spread of the legs, abnormal posture, tremor hyperactivity, lack of exploratory behavior, somnolence, stupor or catalepsy.
For the MES and scMET tests the data is presented in the form of the number of animals protected by the administered compound/total number of animals tested.

[6] = tested on: hippocampal kindled focal seizures; assay: Hippocampal kindling model, kindled rats i.p.; assay type: in vivo, adult male Sprague-Dawley rats; details: for Number Protected/Number Tested: Dose Responses table
Text: The hippocampal kindling model can be used to evaluate a compound's ability to affect both the expression and acquisition of focal seizures. The hippocampal kindling paradigm as described by Lothman and Williamson (Lothman, 1994) allows the temporal effects of a drug to be evaluated in a single animal. This procedure requires the surgical placement of bipolar electrodes in the ventral hippocampus of adult male Sprague-Dawley rats. Stage five behavioral seizures are produced by using a stimulus consisting of a 50 Hz, 10 s train of 1 ms biphasic 200 uA pulses delivered every 30 min for 6 hours (12 stimuli per day) on alternating days for a total of 60 stimulations (five stimulus days). Prior to evaluating a candidate's anticonvulsant activity, a drug free control period consisting of supramaximal stimulations are recorded to verify the stability of a stage five generalized seizure.
A single dose of the candidate compound is then administered intraperitoneally (i.p.), 15 min following the last control stimulation. The anticonvulsant activity of the drug is assessed every 30 min for three to four hours starting 15 min after administering the test material. After each stimulation, individual Racine seizure scores and afterdischarge durations are recorded. Rats are used again in drug trials after four to five drug- and stimulus-free days.

[7] = tested on: pentylenetetrazol-induced clonic seizures; assay: Subcutaneous Metrazol seizure test (scMET), mice i.p.; assay type: in vivo, Carworth Farms No. 1 mice
Text: as §1
This is a model that primarily identifies compounds that raise seizure threshold. With some minor exceptions, the pharmacological profile of the scMET seizure model is consistent with the human condition. The scMET test utilizes a dose of pentylenetetrazol (85 mg/kg in Carworth Farms No. 1 mice and 70 mg/kg in Sprague-Dawley rats) that induces clonic seizures lasting for a period of at least five seconds in 97% (CD97) of animals tested. At the anticipated time of testing the convulsant is administered subcutaneously. The test compound is administered intraperitoneally in mice and orally in rats. Animals are observed over a 30 minute period. Absence of clonic spasms in the observed time period indicates a compound's ability to abolish the effect of pentylenetetrazol on seizure threshold.
as §3

SMILES: NC(=O)OCC(F)(CO)c1ccccc1 (stereo not drawn) [fluoro monocarbamate felbamate, 2-Fluoro-2-phenyl-1,3-propanediol monocarbamate]
- MES protection ([1]; mice, 100 mg/kg): moderate MES protection
- MES protection [2]: protection is seen at several different timepoints

SMILES: O=C1NC(=O)C(c2ccccc2)CO1 (stereo not drawn) [oxazinane-dione 9]
- stability at relevant pH [3]: unstable

SMILES: NC(=O)OCC(F)(COC(N)=O)c1ccccc1 [fluoro felbamate, 2-Fluoro-2-phenyl-1,3-propanediol dicarbamate]
- MES protection ([1]; mice, 30 mg/kg, at both 30 minutes and 4 hours): MES protective effects
- times more active than felbamate ([1]; test not specified): 5-10 times
- dosage at which toxicity across time occurs ([4]; mice): ≥ 300 mg/kg
- toxic effects ([4]; mice, 30 mg/kg, 30 minute timepoint): some toxic effects
- safety ratio ([4]; mice, quantitative results (Table 3)): at least five
- TOX ED50 ([4]; mouse, I.P.): 115 mg/kg
- MES protection [2]: full protection
- no toxicity at doses up to ([5]; oral administration to rats): up to 500 mg/kg
- TOX ED50 ([5]; rat, p.o.): >500 mg/kg
- Number Protected/Number Tested ([6]; 25 mg/kg): 0/7
- Number Protected/Number Tested ([6]; 50 mg/kg): 3/7
- Number Protected/Number Tested ([6]; 100 mg/kg): 7/8^a
- afterdischarge duration ([6]; kindled rats, 100 mg/kg): corresponding decrease in afterdischarge duration
- seizure score ([6]; kindled rats, 100 mg/kg): significant drop in seizure score

SMILES: O=C1NC(=O)C(F)(c2ccccc2)CO1 (stereo not drawn) [fluoro dioxo, 5-Fluoro-5-phenyl-1,3-oxazinane-2,4-dione]
- anti-seizure activity in mice ([1]; mice): inactive
- anti-seizure activity in rats [2]: strong anti-seizure activity

SMILES: NC(=O)OCC1(c2ccccc2)COC(=O)N1 (stereo not drawn) [cyclic felbamate]
- MES: number of animals protected/total number of animals tested ([1]; 30 mg/kg, 0.5 h): 0/1
- MES: number of animals protected/total number of animals tested ([1]; 30 mg/kg, 4.0 h): 0/1
- MES: number of animals protected/total number of animals tested ([1]; 100 mg/kg, 0.5 h): 0/3
- MES: number of animals protected/total number of animals tested ([1]; 100 mg/kg, 4.0 h): 0/3
- MES: number of animals protected/total number of animals tested ([1]; 300 mg/kg, 0.5 h): 0/1
- MES: number of animals protected/total number of animals tested ([1]; 300 mg/kg, 4.0 h): 0/1
- ScMET: number of animals protected/total number of animals tested ([7]; 30 mg/kg, 0.5 h): 0/1
- ScMET: number of animals protected/total number of animals tested ([7]; 30 mg/kg, 4.0 h): 0/1
- ScMET: number of animals protected/total number of animals tested ([7]; 100 mg/kg, 0.5 h): 0/1
- ScMET: number of animals protected/total number of animals tested ([7]; 100 mg/kg, 4.0 h): 0/1
- ScMET: number of animals protected/total number of animals tested ([7]; 300 mg/kg, 0.5 h): 0/1
- ScMET: number of animals protected/total number of animals tested ([7]; 300 mg/kg, 4.0 h): 0/1
- TOX: number of animals exhibiting toxic effects/total number of animals tested ([4]; 30 mg/kg, 0.5 h): 0/4
- TOX: number of animals exhibiting toxic effects/total number of animals tested ([4]; 30 mg/kg, 4.0 h): 0/2
- TOX: number of animals exhibiting toxic effects/total number of animals tested ([4]; 100 mg/kg, 0.5 h): 0/8
- TOX: number of animals exhibiting toxic effects/total number of animals tested ([4]; 100 mg/kg, 4.0 h): 0/4
- TOX: number of animals exhibiting toxic effects/total number of animals tested ([4]; 300 mg/kg, 0.5 h): 0/4
- TOX: number of animals exhibiting toxic effects/total number of animals tested ([4]; 300 mg/kg, 4.0 h): 0/2
- anti-seizure activity in rats [2]: potent activity
- MES: number of animals protected/total number of animals tested ([2]; 0.25 h): 2/4
- MES: number of animals protected/total number of animals tested ([2]; 0.5 h): 2/4
- MES: number of animals protected/total number of animals tested ([2]; 1.0 h): 3/4
- MES: number of animals protected/total number of animals tested ([2]; 2.0 h): 0/4
- MES: number of animals protected/total number of animals tested ([2]; 4.0 h): 3/4
- TOX: number of animals exhibiting toxic effects/total number of animals tested ([5]; 0.25 h): 0/4
- TOX: number of animals exhibiting toxic effects/total number of animals tested ([5]; 0.5 h): 0/4
- TOX: number of animals exhibiting toxic effects/total number of animals tested ([5]; 1.0 h): 0/4
- TOX: number of animals exhibiting toxic effects/total number of animals tested ([5]; 2.0 h): 0/4
- TOX: number of animals exhibiting toxic effects/total number of animals tested ([5]; 4.0 h): 0/4
